Data as given in ChEMBL document CHEMBL2417537, “Synthesis and antifungal activity of terpenyl-1,4-naphthoquinone and 1,4-anthracenedione derivatives” (Eur J Med Chem, 2013).
In brackets after ≈: the same amount, converted by molar mass. Activity calls are given as the source filed them. The rule behind the calls is not given here.

Assays:
Aspergillus terreus = test: Antifungal activity against Aspergillus terreus CDC 317 after 48 hrs; type: functional; conditions: CDC 317, 48 h
Vero = test: Cytotoxicity against african green monkey Vero cells after 48 hrs by MTT assay; type: cell-based; conditions: Chlorocebus sabaeus
[1] = Selectivity index, ratio of IC50 for african green monkey Vero cells to IC50 for Trichophyton rubrum ATCC 28188; type: toxicity, cell-based; conditions: read-out: Ratio IC50
Trichophyton rubrum = test: Antifungal activity against Trichophyton rubrum ATCC 28188 after 6 days; type: functional; conditions: ATCC 28188, 144 h
[2] = system: Trichophyton mentagrophytes; test: Antifungal activity against Trichophyton mentagrophytes ATCC 24198 after 6 days; type: functional; conditions: ATCC 24198, 144 h
Fusarium oxysporum = test: Antifungal activity against Fusarium oxysporum ATCC 48112 after 48 hrs; type: functional; conditions: ATCC 48112, 48 h
[3] = Selectivity index, ratio of IC50 for african green monkey Vero cells to IC50 for Aspergillus fumigatus ATCC 204305; type: toxicity, cell-based; conditions: read-out: Ratio IC50
Aspergillus niger = test: Antifungal activity against Aspergillus niger ATCC 16404 after 48 hrs; type: functional; conditions: ATCC 16404, 48 h
Aspergillus flavus = test: Antifungal activity against Aspergillus flavus ATCC 204304 after 48 hrs; type: functional; conditions: ATCC 204304, 48 h
Aspergillus fumigatus = test: Antifungal activity against Aspergillus fumigatus ATCC 204305 after 48 hrs; type: functional; conditions: ATCC 204305, 48 h
[4] = Selectivity index, ratio of IC50 for african green monkey Vero cells to IC50 for Candida krusei ATCC 6258; type: toxicity, cell-based; conditions: read-out: Ratio IC50
Candida albicans [5] = test: Antifungal activity against Candida albicans ATCC 90028 after 24 hrs; type: functional; conditions: ATCC 90028, 24 h
Candida albicans [6] = test: Antifungal activity against Candida albicans ATCC 10231 after 24 hrs; type: functional; conditions: ATCC 10231, 24 h
Pichia kudriavzevii = test: Antifungal activity against Candida krusei ATCC 6258 after 24 hrs; type: functional; conditions: ATCC 6258, 24 h
Clavispora lusitaniae = test: Antifungal activity against Candida lusitaniae ATCC 200951 after 24 hrs; type: functional; conditions: ATCC 200951, 24 h
Candida tropicalis [7] = test: Antifungal activity against Candida tropicalis ATCC 200956 after 24 hrs; type: functional; conditions: ATCC 200956, 24 h
Candida parapsilosis [8] = test: Antifungal activity against Candida parapsilosis ATCC 22019 after 24 hrs; type: functional; conditions: ATCC 22019, 24 h
Candida tropicalis [9] = test: Antifungal activity against Candida tropicalis CECT 11901 after 24 hrs; conditions: CECT 11901, 24 h
[10] = Selectivity index, ratio of IC50 for african green monkey Vero cells to IC50 for Trichophyton mentagrophytes ATCC 24198; type: toxicity, cell-based; conditions: read-out: Ratio IC50
[11] = Selectivity index, ratio of IC50 for african green monkey Vero cells to IC50 for Candida lusitaniae ATCC 200951; type: toxicity, cell-based; conditions: read-out: Ratio IC50
Candida parapsilosis [12] = test: Antifungal activity against Candida parapsilosis ATCC 22019 at 0.5 MIC up to 24 hrs by time kill study; type: functional, organism-based
Candida parapsilosis [13] = test: Antifungal activity against Candida parapsilosis ATCC 22019 at > MIC up to 24 hrs by time kill study; type: functional, organism-based

SMILES	MIC90 (Aspergillus terreus) [µg/mL]	IC50 (Vero) [µg/mL]	MIC90 (Trichophyton rubrum) [µg/mL]	MIC90 [2] [µg/mL]	MIC90 (Fusarium oxysporum) [µg/mL]	MIC90 (Aspergillus niger) [µg/mL]	MIC90 (Aspergillus flavus) [µg/mL]	MIC90 (Aspergillus fumigatus) [µg/mL]	MIC90 (Candida albicans [5]) [µg/mL]	MIC90 (Candida albicans [6]) [µg/mL]	MIC90 (Pichia kudriavzevii) [µg/mL]	MIC90 (Clavispora lusitaniae) [µg/mL]	MIC90 (Candida tropicalis [7]) [µg/mL]	MIC90 (Candida parapsilosis [8]) [µg/mL]	MIC90 (Candida tropicalis [9]) [µg/mL]	also measured
CC(C)=CCCc1ccc2c(c1)C(=O)C(Cl)=CC2=O	> 32	26.1 (≈ 95 µM)	4 (≈ 14.6 µM)	6.4 (≈ 23.3 µM)	32 (≈ 116 µM)	> 32	> 32	11.3 (≈ 41.1 µM)	> 32	> 32	2.4 (≈ 8.74 µM)	3.2 (≈ 11.6 µM)	11.3 (≈ 41.1 µM)	4 (≈ 14.6 µM)	> 32	selectivity ratio [1]: 6.5; selectivity ratio [3]: 1.4; selectivity ratio [4]: 10.9
CN(C/C=C/C#CC(C)(C)C)Cc1cccc2ccccc12 [TERBINAFINE]		30.9 (≈ 106 µM)	0.08 (≈ 0.275 µM)	0.03 (≈ 0.103 µM)												selectivity ratio [1]: 386
CC(C)=CCCc1ccc2c(c1)C(=O)C(Cl)=C(NCc1ccccc1)C2=O	> 32	55.9 (≈ 147 µM)	22.6 (≈ 59.5 µM)	> 32	> 32	> 32	> 32	> 32	> 32	> 32	> 32	> 32	> 32	> 32	> 32	
CC(C)=CCCc1ccc2c(c1)C(=O)C=CC2=O	> 32	109 (≈ 454 µM)	> 32	> 32	> 32	> 32	> 32	> 32	> 32	> 32	> 32	> 32	> 32	> 32	> 32	
CC(C)CCCc1ccc2c(c1)C(=O)C(Br)=C(Br)C2=O	> 32	≤ 25	32 (≈ 80 µM)	> 32	> 32	> 32	32 (≈ 80 µM)	> 32	> 32	> 32	> 32	> 32	> 32	> 32	> 32	
CC(=O)NC1=C(Cl)C(=O)c2cc3c(cc2C1=O)CCCC3(C)C	> 32	22.3 (≈ 67.2 µM)	5 (≈ 15.1 µM)	3.2 (≈ 9.64 µM)	32 (≈ 96.4 µM)	> 32	> 32	22.6 (≈ 68.1 µM)	8 (≈ 24.1 µM)	4 (≈ 12.1 µM)	2.8 (≈ 8.44 µM)	2.2 (≈ 6.63 µM)	4 (≈ 12.1 µM)	8 (≈ 24.1 µM)	6.4 (≈ 19.3 µM)	selectivity ratio [10]: 7.1; selectivity ratio [3]: 0.9; selectivity ratio [11]: 10.1
CCOC1=C(OCC)C(=O)c2cc3c(cc2C1=O)CCCC3(C)C	> 32	≤ 25	> 32	> 32	> 32	> 32	> 32	> 32	> 32	> 32	> 32	> 32	> 32	> 32	> 32	
CC1(C)CCCc2cc3c(cc21)C(=O)C=CC3=O	> 32	8.6 (≈ 35.8 µM)	4 (≈ 16.6 µM)	1.3 (≈ 5.41 µM)	> 32	> 32	> 32	> 32	22.6 (≈ 94 µM)	18 (≈ 74.9 µM)	4 (≈ 16.6 µM)	5 (≈ 20.8 µM)	5 (≈ 20.8 µM)	4.8 (≈ 20 µM)	12.7 (≈ 52.9 µM)	selectivity ratio [10]: 6.6; selectivity ratio [4]: 2.2
CC1(C)CCCc2cc3c(cc21)C(=O)C=C(Cl)C3=O	> 32	109 (≈ 397 µM)	5 (≈ 18.2 µM)	3.2 (≈ 11.6 µM)	16 (≈ 58.2 µM)	> 32	> 32	16 (≈ 58.2 µM)	16 (≈ 58.2 µM)	20.2 (≈ 73.5 µM)	2 (≈ 7.28 µM)	5 (≈ 18.2 µM)	8 (≈ 29.1 µM)	4 (≈ 14.6 µM)	12.7 (≈ 46.2 µM)	Activity (Candida parapsilosis [12]): inactive; Activity (Candida parapsilosis [13]): Active; selectivity ratio [10]: > 7.8; selectivity ratio [3]: > 1.6; selectivity ratio [4]: > 12.5
COc1ccc(SC2=CC(=O)c3ccc(CCCC(C)C)cc3C2=O)cc1	> 32		> 32	> 32	> 32	> 32	> 32	> 32	> 32	> 32	> 32	> 32	> 32	> 32	> 32	
Cc1c2c(nc3ccccc13)C(=O)c1cc(CCCC(C)C)ccc1C2=O	> 32	115 (≈ 322 µM)	> 32	> 32	> 32	> 32	> 32	> 32	> 32	> 32	> 32	> 32	> 32	> 32	> 32	
COc1cc(NC2=C(Cl)C(=O)c3cc4c(cc3C2=O)C(C)(C)CCC4)cc(OC)c1OC	> 32	≤ 25	> 32	> 32	> 32	> 32	> 32	> 32	> 32	> 32	> 32	> 32	> 32	> 32	> 32	
COc1ccc(NC2=C(Br)C(=O)c3cc(CCCC(C)C)ccc3C2=O)cc1	> 32	58.5 (≈ 132 µM)	> 32	> 32	> 32	> 32	> 32	> 32	> 32	> 32	> 32	> 32	> 32	> 32	> 32	
CCC(C)n1ncn(-c2ccc(N3CCN(c4ccc(OCC5COC(Cn6cncn6)(c6ccc(Cl)cc6Cl)O5)cc4)CC3)cc2)c1=O (stereo not given) [ITRACONAZOLE]		> 50					0.1 (≈ 0.142 µM)	0.2 (≈ 0.283 µM)			0.5 (≈ 0.709 µM)			0.25 (≈ 0.354 µM)		Activity (Candida parapsilosis [13]): Active; selectivity ratio [4]: > 100
Cc1ccc2[nH]c3c(c2c1)C(=O)c1ccc(CCCC(C)C)cc1C3=O	> 32	55.2 (≈ 160 µM)	> 32	> 32	> 32	> 32	> 32	> 32	> 32	> 32	> 32	> 32	> 32	> 32	> 32	
Cc1cc(C)c2c3c(oc2c1)C(=O)c1cc(CCCC(C)C)ccc1C3=O	> 32	35.4 (≈ 98.2 µM)	> 32	> 32	> 32	> 32	> 32	> 32	> 32	> 32	> 32	> 32	> 32	> 32	> 32	
CCNC1=CC(=O)c2cc3c(cc2C1=O)C(C)(C)CCC3	> 32	35.6 (≈ 126 µM)	3.2 (≈ 11.3 µM)	5 (≈ 17.6 µM)	> 32	> 32	> 32	> 32	> 32	> 32	> 32	> 32	> 32	> 32	> 32	selectivity ratio [1]: 11.1
COc1ccc(NC2=C(Cl)C(=O)c3cc(CCCC(C)C)ccc3C2=O)cc1	> 32	35.6 (≈ 89.5 µM)	12.7 (≈ 31.9 µM)	5 (≈ 12.6 µM)	> 32	> 32	> 32	> 32	> 32	> 32	> 32	16 (≈ 40.2 µM)	32 (≈ 80.4 µM)	> 32	> 32	selectivity ratio [10]: 7.1; selectivity ratio [11]: 2.2
CC(C)CCCc1ccc2c(c1)C(=O)C(Cl)=C(Cl)C2=O	> 32	≥ 200	4 (≈ 12.9 µM)	4 (≈ 12.9 µM)	> 32	> 32	> 32	8 (≈ 25.7 µM)	> 32	> 32	> 32	20.2 (≈ 64.9 µM)	> 32	> 32	> 32	selectivity ratio [10]: > 50; selectivity ratio [1]: > 50; selectivity ratio [3]: > 25; selectivity ratio [11]: > 9.9
